Test results: ChEMBL document CHEMBL1909046, “DrugMatrix in vitro pharmacology data”

What was measured:
[1] = DRUGMATRIX: GABAA, Flunitrazepam, Central radioligand binding (ligand: [3H] Flunitrazepam); format: cell membranes, Rattus norvegicus, Wistar, Brain, Membrane; conditions: Not Active = under 50% inhibition at 10 µM
Glycine receptor = Glycine receptor (Rattus norvegicus, UniProt P07727+P20781+P22771+P24524); format: cell membranes, Wistar, Spinal cord, Membrane; further: in other assays of this panel Not Active means under 50% inhibition at 10 µM
Androgen receptor [2] = biological target: T1, Androgen receptor (Rattus norvegicus, UniProt P15207); further: in other assays of this panel Not Active means under 50% inhibition at 10 µM
T1 sequence (P15207 whole entry): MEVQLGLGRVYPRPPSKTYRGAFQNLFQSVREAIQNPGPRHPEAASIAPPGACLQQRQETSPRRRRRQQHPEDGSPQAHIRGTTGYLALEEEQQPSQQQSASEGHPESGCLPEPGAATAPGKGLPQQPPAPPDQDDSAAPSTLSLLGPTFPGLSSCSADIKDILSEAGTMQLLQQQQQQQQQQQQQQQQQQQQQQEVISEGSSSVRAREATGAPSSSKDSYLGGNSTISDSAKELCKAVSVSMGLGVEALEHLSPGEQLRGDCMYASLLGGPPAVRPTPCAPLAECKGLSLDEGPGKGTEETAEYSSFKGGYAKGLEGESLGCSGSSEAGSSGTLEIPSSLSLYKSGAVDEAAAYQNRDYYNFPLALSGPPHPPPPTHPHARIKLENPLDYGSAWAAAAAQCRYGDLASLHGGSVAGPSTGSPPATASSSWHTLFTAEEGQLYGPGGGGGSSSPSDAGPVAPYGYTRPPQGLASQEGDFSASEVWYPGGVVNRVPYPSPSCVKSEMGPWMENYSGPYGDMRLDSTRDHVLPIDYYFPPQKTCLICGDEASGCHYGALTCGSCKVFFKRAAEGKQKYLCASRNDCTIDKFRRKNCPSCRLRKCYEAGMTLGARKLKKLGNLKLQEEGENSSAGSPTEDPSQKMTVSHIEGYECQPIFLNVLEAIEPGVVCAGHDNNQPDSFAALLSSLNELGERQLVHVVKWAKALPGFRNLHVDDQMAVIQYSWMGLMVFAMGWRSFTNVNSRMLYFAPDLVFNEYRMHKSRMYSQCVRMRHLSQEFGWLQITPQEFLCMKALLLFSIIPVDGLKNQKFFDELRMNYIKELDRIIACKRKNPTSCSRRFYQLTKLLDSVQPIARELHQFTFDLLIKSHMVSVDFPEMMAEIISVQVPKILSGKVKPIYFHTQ

Androgen receptor [3] = biological target: T1, Androgen receptor; remark: listed apart in the source
Cytochrome P450 2C9 = Cytochrome P450 2C9 (Homo sapiens, UniProt P11712); further: in other assays of this panel Not Active means under 50% inhibition at 10 µM
Cytochrome P450 2D6 = Cytochrome P450 2D6 (Homo sapiens, UniProt P10635); further: in other assays of this panel Not Active means under 50% inhibition at 10 µM
Cytochrome P450 1A2 = biological target: T2, Cytochrome P450 1A2 (Homo sapiens, UniProt P05177); further: in other assays of this panel Not Active means under 50% inhibition at 10 µM
T2 sequence (P05177 whole entry): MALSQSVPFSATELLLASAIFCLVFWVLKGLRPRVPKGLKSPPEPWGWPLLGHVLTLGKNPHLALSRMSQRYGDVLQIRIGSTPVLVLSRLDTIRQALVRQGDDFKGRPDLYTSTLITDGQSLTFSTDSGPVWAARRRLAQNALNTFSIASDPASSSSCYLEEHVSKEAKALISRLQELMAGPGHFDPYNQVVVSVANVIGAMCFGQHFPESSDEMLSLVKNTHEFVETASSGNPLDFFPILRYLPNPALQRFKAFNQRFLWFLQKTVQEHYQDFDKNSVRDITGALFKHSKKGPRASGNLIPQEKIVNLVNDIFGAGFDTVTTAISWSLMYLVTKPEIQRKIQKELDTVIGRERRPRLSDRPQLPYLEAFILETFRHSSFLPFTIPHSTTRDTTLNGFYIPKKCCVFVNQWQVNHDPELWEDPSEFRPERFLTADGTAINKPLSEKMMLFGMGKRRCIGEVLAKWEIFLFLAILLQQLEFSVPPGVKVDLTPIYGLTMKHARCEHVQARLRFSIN

Cytochrome P450 2C19 = Cytochrome P450 2C19 (Homo sapiens, UniProt P33261); further: in other assays of this panel Not Active means under 50% inhibition at 10 µM
Chain of Cytochrome P450 2C19 (P33261 whole entry): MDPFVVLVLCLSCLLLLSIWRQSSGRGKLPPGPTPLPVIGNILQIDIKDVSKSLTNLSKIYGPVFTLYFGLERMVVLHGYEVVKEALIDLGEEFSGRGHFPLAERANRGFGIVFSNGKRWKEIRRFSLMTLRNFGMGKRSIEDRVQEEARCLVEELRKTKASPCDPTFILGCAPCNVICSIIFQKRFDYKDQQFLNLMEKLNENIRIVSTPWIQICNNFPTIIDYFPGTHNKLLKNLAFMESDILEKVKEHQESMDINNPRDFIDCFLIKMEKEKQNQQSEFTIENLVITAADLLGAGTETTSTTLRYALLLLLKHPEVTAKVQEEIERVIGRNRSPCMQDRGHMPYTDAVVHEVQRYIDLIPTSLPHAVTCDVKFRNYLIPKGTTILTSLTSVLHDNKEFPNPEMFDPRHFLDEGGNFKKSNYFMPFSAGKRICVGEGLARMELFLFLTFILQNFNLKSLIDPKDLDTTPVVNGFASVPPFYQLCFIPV

Chain of Glycine receptor (P22771 whole entry): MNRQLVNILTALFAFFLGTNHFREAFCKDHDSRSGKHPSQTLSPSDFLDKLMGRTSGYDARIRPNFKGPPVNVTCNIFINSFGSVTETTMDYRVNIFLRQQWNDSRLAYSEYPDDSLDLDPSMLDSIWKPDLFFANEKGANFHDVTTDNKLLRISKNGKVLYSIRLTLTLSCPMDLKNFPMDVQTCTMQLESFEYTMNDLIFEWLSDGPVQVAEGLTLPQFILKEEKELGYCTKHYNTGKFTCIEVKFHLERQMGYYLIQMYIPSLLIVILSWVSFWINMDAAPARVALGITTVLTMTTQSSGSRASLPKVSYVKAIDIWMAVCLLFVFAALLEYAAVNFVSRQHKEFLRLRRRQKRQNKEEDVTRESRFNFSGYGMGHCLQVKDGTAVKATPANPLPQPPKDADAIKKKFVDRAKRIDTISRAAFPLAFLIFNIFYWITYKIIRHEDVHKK
Chain of Glycine receptor (P24524 whole entry): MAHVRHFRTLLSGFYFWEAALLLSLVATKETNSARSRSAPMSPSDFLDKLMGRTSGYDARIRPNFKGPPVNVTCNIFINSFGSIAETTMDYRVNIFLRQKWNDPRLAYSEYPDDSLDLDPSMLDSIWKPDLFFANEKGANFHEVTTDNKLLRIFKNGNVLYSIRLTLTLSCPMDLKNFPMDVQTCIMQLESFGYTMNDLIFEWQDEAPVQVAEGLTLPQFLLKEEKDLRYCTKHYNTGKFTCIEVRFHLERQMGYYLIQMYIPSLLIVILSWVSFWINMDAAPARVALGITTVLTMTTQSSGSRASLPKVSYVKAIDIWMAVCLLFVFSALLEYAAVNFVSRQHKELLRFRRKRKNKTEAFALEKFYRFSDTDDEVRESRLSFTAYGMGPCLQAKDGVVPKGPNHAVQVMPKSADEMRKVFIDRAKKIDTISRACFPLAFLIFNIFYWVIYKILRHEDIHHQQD
Chain of Glycine receptor (P07727 whole entry): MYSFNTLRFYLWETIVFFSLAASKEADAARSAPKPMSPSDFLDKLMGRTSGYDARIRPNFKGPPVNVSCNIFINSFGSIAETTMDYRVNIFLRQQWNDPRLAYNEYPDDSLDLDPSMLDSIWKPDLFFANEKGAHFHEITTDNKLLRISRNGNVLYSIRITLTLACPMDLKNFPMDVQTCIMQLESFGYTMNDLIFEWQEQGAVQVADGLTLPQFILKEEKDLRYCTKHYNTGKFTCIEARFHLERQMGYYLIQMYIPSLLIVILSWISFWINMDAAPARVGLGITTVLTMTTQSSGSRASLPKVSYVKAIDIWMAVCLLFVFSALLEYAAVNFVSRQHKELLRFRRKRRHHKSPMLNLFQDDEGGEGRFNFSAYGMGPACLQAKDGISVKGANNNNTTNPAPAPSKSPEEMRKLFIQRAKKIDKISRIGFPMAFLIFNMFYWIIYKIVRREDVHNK
Chain of Glycine receptor (P20781 whole entry): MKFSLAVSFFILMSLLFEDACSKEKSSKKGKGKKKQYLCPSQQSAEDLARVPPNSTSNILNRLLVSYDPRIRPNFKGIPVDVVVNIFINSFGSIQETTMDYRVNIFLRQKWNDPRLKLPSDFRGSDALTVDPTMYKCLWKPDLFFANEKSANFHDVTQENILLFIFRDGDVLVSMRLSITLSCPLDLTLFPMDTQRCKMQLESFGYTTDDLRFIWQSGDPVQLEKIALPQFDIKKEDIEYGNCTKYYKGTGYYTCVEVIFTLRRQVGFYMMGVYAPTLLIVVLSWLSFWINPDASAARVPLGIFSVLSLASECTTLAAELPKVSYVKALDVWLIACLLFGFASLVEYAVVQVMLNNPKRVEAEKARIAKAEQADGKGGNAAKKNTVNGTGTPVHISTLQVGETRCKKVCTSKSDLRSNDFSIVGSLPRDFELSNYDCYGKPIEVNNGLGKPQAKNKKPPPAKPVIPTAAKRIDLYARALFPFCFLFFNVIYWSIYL
Chain of Cytochrome P450 2C9 (P11712 whole entry): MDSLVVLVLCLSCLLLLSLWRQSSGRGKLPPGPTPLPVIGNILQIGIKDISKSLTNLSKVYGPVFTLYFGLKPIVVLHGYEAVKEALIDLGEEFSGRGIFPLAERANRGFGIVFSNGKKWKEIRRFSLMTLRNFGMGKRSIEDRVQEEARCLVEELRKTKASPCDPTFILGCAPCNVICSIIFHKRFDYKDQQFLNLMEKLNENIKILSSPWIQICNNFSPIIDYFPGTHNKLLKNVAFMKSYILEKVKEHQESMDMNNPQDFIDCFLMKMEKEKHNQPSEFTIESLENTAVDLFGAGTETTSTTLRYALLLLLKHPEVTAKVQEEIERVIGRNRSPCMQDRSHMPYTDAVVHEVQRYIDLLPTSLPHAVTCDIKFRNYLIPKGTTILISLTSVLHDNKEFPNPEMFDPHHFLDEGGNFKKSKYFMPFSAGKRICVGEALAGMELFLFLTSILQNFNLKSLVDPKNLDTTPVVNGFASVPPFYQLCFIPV
Chain of Cytochrome P450 2D6 (P10635 whole entry): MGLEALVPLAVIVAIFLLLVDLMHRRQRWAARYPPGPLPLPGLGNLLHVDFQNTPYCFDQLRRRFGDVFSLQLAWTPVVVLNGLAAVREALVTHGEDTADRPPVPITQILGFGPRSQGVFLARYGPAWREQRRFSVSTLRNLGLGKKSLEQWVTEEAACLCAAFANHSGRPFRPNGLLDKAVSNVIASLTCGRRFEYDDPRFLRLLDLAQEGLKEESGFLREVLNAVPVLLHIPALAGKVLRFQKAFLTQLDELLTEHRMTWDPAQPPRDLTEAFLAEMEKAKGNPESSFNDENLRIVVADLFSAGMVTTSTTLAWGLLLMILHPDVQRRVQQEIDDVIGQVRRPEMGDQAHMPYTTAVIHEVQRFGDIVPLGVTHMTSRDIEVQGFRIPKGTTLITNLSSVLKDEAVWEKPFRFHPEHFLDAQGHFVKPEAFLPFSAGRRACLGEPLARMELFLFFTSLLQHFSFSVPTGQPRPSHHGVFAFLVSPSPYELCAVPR

| Compound | IC50 [1] | Ki [1] | IC50 (Androgen receptor [2]) | further results |
| --- | --- | --- | --- | --- |
| CC(=N)S [THIOACETAMIDE] | Not Active | Not Active | – | – |
| O=C1C[C@@H]2OCC=C3CN4CC[C@]56c7ccccc7N1[C@H]5[C@H]2[C@H]3C[C@H]46 [STRYCHNINE] | Not Active | Not Active | – | IC50 (Glycine receptor): 8.29 nM; Ki (Glycine receptor): 4.69 nM |
| Nc1ccc(S(=O)(=O)NC(=O)c2ccccc2)cc1 [SULFABENZAMIDE] | Not Active | Not Active | – | – |
| CC(=O)OCC(COC(C)=O)OC(C)=O [TRIACETIN] | Not Active | Not Active | – | – |
| CCCCC(=O)N(Cc1ccc(-c2ccccc2-c2nnn[nH]2)cc1)[C@H](C(=O)O)C(C)C | Not Active | Not Active | – | – |
| CC1CCC(NC(=O)N(CCCl)N=O)CC1 (configuration not stated) [SEMUSTINE] | Not Active | Not Active | – | – |
| Oc1ccc2c3c1O[C@H]1[C@@H](O)CC[C@@]4(O)[C@@H](C2)N(CC2CCC2)CC[C@]314 [NALBUPHINE] | – | – | Not Active | – |
| Clc1ccc(COC(Cn2ccnc2)c2ccc(Cl)cc2Cl)c(Cl)c1 (configuration not stated) [MICONAZOLE] | – | – | – | IC50 (Androgen receptor [3]): 7090 nM; Ki (Androgen receptor [3]): 4730 nM; IC50 (Cytochrome P450 2C9): 200 nM; IC50 (Cytochrome P450 2D6): 1000 nM |
| O=C(O)CCCCC1CCSS1 (stereo not drawn) [LIPOIC ACID, ALPHA] | Not Active | Not Active | – | – |
| CCCCCCCCNC(C)C(O)c1ccc(SC(C)C)cc1 (configuration not stated) [SULOCTIDIL] | Not Active | Not Active | Not Active | – |
| COC(=O)[C@H]1[C@H]2C[C@@H]3c4[nH]c5cc(OC)ccc5c4CCN3C[C@H]2C[C@@H](OC(=O)c2cc(OC)c(OC)c(OC)c2)[C@@H]1OC [RESERPINE] | Not Active | Not Active | – | – |
| O=c1[nH]c(=O)n(C2CCCO2)cc1F (configuration not stated) [TEGAFUR] | Not Active | Not Active | – | – |
| Cc1ccc(C(=O)c2ccc(CC(=O)O)n2C)cc1 [TOLMETIN] | Not Active | Not Active | Not Active | – |
| C[S+]([O-])c1ccc(-c2nc(-c3ccncc3)c(-c3ccc(F)cc3)[nH]2)cc1 (configuration not stated) [SB-203580] | – | – | Not Active | IC50 (Cytochrome P450 1A2): 2000 nM; IC50 (Cytochrome P450 2C19): 800 nM; IC50 (Cytochrome P450 2C9): 1000 nM; IC50 (Cytochrome P450 2D6): 2000 nM |
| C[C@]12C=CC(=O)C=C1CC[C@@H]1[C@@H]2C(=O)C[C@@]2(C)[C@H]1CC[C@]2(O)C(=O)CO [PREDNISONE] | Not Active | Not Active | – | – |
| CN1CCN(CCCN2c3ccccc3Sc3ccc(C(F)(F)F)cc32)CC1 [TRIFLUOPERAZINE] | Not Active | Not Active | – | – |
| O=C(O)COc1ccc(C(=O)c2cccs2)c(Cl)c1Cl | Not Active | Not Active | Not Active | – |
| C[N+](C)(C)CCOC(=O)CCC(=O)OCC[N+](C)(C)C.[Cl-].[Cl-] [SUCCINYLCHOLINE CHLORIDE] | Not Active | Not Active | – | – |
| TRANSPLATIN | Not Active | Not Active | Not Active | Ki (Androgen receptor [2]): Not Active |
| C[C@@](Cc1ccc(O)c(O)c1)(NN)C(=O)O.O [CARBIDOPA] | Not Active | Not Active | – | – |
| ZIRCONIUM(IV) CHLORIDE | Not Active | Not Active | Not Active | Ki (Androgen receptor [2]): Not Active |
| O=C(O)c1ccccc1O [SALICYLIC ACID] | Not Active | Not Active | – | – |
